Earlier results, collected in patent US8071602B2, “Piperidine and piperazine derivatives” (M's Science Corporation, priority 2005, dated 2011).

System: rats
Conditions: microinjection

Row | neck dystonia | SMILES
1 | induced neck dystonia | Cc1ccccc1NC(=N)Nc1ccccc1C [DTG, 1,3-di-2-tolyl-guanidine]
2 | no effect | COc1ccc(CCN2CCN(CCCc3ccccc3)CC2)cc1OC [SA-4503, 1-[2-(3,4-dimethoxyphenyl)ethyl]-4-(3-phenylpropyl)piperazine]
